In brackets after ≈: the same amount, converted by molar mass.
Legend:
[1] = biological target: Urease (Canavalia ensiformis, UniProt P07374); test: Inhibition of jack bean urease assessed as reduction in ammonia production by Berthelot colorimetric method
[2] = test system: Mycobacterium tuberculosis; test: Antitubercular activity against Mycobacterium tuberculosis H37Rv after 7 days by MABA; assay type: functional; details: 168 h
[3] = test system: A549; test: Cytotoxicity against human A549 cells after 48 hrs by MTT assay; assay type: functional, cell-based; details: A549, 48 h
[4] = test system: DU-145; test: Cytotoxicity against human DU145 cells incubated for 48 hrs by MTT assay; assay type: functional, cell-based; details: DU-145, 48 h
[5] = test system: MCF7; test: cells; details: Homo sapiens, MCF7, 72 h
Description: Antiproliferative activity against human MCF7 cells incubated for 72 hrs by MTT assay

[6] = biological target: Cholinesterase (Homo sapiens, UniProt P06276); test: Inhibition of BChE (unknown origin) using butyrylthiocholine iodide as substrate preincubated for 15 mins followed by substrate addition and measured after 15 mins
Cholinesterase (Homo sapiens, UniProt P06276), sequence (P06276 whole entry): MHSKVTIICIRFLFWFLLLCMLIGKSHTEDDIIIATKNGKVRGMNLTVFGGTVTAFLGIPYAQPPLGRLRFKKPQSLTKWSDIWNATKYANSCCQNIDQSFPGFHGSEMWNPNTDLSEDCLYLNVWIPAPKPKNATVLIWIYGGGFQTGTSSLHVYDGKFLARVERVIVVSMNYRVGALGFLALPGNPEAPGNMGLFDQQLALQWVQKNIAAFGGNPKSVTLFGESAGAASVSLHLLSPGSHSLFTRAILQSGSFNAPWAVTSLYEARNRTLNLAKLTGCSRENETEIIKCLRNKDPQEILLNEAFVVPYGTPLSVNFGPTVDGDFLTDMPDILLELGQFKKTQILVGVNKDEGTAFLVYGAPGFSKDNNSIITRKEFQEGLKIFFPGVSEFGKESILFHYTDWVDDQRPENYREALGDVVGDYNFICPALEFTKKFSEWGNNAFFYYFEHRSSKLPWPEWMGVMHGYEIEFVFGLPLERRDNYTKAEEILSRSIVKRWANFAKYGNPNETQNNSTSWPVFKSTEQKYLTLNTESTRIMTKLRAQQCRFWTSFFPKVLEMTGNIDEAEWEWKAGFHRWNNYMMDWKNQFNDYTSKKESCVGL

[7] = biological target: Polyunsaturated fatty acid 5-lipoxygenase (Homo sapiens, UniProt P09917); test: Inhibition of 5-lipoxygenase (unknown origin) incubated for 10 mins
Polyunsaturated fatty acid 5-lipoxygenase, sequence (P09917 whole entry): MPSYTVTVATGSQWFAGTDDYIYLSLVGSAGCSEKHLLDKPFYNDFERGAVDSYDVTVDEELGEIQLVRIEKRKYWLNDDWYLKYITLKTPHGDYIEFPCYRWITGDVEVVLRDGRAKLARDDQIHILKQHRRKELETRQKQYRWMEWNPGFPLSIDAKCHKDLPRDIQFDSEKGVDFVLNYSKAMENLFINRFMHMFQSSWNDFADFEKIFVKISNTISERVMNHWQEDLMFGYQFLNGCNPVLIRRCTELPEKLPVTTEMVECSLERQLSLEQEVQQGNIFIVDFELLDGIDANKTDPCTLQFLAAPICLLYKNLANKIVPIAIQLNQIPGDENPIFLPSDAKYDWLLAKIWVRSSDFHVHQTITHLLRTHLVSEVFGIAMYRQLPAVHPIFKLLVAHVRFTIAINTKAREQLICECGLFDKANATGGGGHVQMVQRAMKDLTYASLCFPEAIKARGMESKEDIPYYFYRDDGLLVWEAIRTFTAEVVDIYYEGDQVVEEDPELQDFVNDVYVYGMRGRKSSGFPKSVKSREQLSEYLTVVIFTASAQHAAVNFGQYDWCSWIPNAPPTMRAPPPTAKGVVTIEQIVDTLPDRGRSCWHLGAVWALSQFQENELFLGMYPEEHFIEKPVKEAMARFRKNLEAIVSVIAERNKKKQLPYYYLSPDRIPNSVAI

[8] = biological target: Tyrosinase (Homo sapiens) (UniProt P14679); test: Inhibition of tyrosinase (unknown origin) using L-DOPA as substrate preincubated with substrate for 2 mins followed by enzyme addition and measured after 10 min by spectrophotometric method relative to control
Tyrosinase (Homo sapiens), sequence (P14679 whole entry): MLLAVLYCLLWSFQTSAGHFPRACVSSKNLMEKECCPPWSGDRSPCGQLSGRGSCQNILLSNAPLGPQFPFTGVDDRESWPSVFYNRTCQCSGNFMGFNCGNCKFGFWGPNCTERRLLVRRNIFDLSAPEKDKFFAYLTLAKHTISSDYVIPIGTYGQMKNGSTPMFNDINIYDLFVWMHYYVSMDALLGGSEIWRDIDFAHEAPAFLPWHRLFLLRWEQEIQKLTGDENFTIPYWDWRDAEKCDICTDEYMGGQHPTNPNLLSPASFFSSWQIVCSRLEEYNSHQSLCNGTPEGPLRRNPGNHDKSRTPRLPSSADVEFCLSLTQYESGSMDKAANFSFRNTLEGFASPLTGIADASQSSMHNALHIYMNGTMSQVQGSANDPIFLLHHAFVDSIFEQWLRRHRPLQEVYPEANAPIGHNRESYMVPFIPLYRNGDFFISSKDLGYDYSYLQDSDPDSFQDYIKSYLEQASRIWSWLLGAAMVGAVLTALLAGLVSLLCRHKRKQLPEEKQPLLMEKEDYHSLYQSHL

[9] = test system: HT-29; test: Cytotoxicity against human HT-29 cells after 72 hrs by SRB assay; assay type: functional, cell-based; details: HT-29, 72 h
[10] = test system: HT-29; test: Potency index, ratio of cisplatin IC50 to compound IC50 for cytotoxicity against human HT-29 cells; assay type: functional
[11] = test system: Staphylococcus epidermidis; test: Antibacterial activity against Staphylococcus epidermidis MTCC 6880 incubated for 24 hrs by serial dilution method; assay type: functional; details: MTCC 6880, 24 h
[12] = test system: Pseudomonas aeruginosa; test: Antibacterial activity against Pseudomonas aeruginosa MTCC 424 after 24 hrs by serial dilution method; assay type: functional; details: MTCC 424, 24 h
[13] = test system: Escherichia coli; test: Antibacterial activity against Escherichia coli MTCC 1652 after 24 hrs by serial dilution method; assay type: functional; details: MTCC 1652, 24 h
[14] = test system: Candida albicans; test: Antifungal activity against Candida albicans MTCC 183 after 24 hrs by serial dilution method; assay type: functional; details: MTCC 183, 24 h
[15] = biological target: Alpha glucosidase (Homo sapiens, UniProt O43451+P10253+P14410+Q2M2H8); test: Inhibition of alpha-glucosidase (unknown origin) using p-nitrophenyl-alpha-D-glucopyranoside as substrate pre-incubated for 15 mins followed by substrate addition and measured for 20 mins by spectrophotometric analysis; assay type: protein assay
[16] = test system: SNB-19; test: Potency index, ratio of cisplatin IC50 to compound IC50 for cytotoxicity against human SNB19 cells; assay type: functional
[17] = test system: SNB-19; test: Cytotoxicity against human SNB19 cells after 72 hrs by WST-1 assay; assay type: functional, cell-based; details: SNB-19, 72 h
[18] = Inhibition of quorum sensing system in Pseudomonas aeruginosa MH602 PlasB::gfp-ASV at 250 uM measured every 30 minutes over 20 hrs by fluorescence analysis relative to control
[19] = biological target: Acetylcholinesterase (Electrophorus electricus, UniProt O42275); test: Inhibition of electric eel AChE using acetylthiocholine iodide as substrate preincubated for 3 mins followed by substrate addition by Ellman's method
Acetylcholinesterase, sequence (O42275 whole entry): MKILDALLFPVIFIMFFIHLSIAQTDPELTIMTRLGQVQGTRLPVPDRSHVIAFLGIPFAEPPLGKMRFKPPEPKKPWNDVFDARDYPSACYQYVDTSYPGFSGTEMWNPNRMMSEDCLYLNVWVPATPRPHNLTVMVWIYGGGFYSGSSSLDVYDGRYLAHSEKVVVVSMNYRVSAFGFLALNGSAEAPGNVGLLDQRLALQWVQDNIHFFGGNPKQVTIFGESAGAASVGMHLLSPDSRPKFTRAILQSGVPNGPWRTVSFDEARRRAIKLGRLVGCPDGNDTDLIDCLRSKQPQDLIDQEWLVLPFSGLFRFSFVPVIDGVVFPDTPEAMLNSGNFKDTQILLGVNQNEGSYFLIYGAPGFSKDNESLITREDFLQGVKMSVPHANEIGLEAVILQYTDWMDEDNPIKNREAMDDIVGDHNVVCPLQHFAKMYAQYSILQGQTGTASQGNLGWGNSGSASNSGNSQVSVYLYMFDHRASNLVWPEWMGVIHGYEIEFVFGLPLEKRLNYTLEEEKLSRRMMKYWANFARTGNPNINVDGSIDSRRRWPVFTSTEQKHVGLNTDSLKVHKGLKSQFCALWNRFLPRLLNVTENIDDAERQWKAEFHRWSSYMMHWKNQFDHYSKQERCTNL

[20] = biological target: Cholinesterase (Equus caballus, UniProt P81908); test: Inhibition of equine serum BuChE using butyrylthiocholine iodide as substrate preincubated for 3 mins followed by substrate addition by Ellman's method
Cholinesterase (Equus caballus, UniProt P81908), sequence (P81908 whole entry): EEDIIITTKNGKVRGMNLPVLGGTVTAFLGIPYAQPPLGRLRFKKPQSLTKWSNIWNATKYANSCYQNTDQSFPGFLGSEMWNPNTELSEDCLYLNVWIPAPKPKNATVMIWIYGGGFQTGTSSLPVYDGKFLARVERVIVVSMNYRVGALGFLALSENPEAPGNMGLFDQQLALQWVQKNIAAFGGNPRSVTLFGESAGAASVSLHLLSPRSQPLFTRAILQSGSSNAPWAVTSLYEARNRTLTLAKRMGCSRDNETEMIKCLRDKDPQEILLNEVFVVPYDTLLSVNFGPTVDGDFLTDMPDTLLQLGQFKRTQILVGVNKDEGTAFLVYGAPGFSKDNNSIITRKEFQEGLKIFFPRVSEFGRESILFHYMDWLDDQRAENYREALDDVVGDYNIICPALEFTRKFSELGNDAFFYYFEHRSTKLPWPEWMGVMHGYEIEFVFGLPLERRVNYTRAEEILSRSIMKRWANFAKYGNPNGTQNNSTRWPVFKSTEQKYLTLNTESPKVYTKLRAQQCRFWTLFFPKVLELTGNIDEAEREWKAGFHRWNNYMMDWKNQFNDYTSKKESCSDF

[21] = test system: HepG2; test: Cytotoxicity against human HepG2 cells incubated for 72 hrs by MTT assay; assay type: functional, cell-based; details: HepG2, 72 h
[22] = test system: A549; test: Cytotoxicity against human A549 cells incubated for 72 hrs by MTT assay; assay type: functional, cell-based; details: A549, 72 h
[23] = biological target: Hepatocyte growth factor receptor (Homo sapiens, UniProt P08581); test: Inhibition of cMET (unknown origin) using FAM-labeled peptide as substrate pre-incubated for 10 mins followed by substrate addition by mobility shift assay
Hepatocyte growth factor receptor, sequence (P08581 whole entry): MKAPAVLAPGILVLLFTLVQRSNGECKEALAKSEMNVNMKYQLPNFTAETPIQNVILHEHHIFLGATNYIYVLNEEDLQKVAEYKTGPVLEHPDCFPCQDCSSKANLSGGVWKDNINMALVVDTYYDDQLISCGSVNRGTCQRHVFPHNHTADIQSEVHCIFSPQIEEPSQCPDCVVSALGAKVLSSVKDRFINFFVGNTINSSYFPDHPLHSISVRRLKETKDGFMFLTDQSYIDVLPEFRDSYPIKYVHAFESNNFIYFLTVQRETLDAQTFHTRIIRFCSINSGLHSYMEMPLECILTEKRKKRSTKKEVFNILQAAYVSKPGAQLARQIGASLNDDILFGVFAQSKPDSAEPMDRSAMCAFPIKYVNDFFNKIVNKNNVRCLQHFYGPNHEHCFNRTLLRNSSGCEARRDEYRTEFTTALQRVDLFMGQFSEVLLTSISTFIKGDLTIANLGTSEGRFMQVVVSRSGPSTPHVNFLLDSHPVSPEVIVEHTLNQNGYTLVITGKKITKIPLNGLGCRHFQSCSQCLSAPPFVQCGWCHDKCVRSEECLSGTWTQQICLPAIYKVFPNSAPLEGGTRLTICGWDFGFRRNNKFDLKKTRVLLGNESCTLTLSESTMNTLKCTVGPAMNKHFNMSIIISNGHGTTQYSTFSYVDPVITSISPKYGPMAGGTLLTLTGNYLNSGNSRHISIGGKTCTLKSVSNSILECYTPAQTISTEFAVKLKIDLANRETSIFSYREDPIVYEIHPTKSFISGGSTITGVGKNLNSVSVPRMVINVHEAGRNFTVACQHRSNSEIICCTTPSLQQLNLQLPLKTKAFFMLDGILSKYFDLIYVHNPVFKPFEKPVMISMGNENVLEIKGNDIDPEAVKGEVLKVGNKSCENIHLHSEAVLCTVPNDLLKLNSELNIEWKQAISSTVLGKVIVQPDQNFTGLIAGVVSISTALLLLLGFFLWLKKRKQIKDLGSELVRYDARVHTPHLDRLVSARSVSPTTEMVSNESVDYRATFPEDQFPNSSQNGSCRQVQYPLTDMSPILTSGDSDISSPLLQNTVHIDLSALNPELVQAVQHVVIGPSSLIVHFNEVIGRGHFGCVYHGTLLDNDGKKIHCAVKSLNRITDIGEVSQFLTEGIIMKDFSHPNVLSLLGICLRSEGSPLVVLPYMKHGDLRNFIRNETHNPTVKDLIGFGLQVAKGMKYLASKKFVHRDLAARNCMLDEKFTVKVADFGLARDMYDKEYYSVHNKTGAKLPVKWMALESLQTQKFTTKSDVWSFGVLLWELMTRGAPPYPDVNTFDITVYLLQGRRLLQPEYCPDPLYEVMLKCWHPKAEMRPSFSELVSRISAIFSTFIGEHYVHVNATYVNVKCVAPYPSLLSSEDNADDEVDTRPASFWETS

[24] = test system: MCF7; test: Potency index, ratio of foretinib IC50 to compound IC50 for antiproliferative activity against human MCF7 cells; assay type: functional
[25] = test system: HepG2; test: Potency index, ratio of foretinib IC50 to compound IC50 for antiproliferative activity against human HepG2 cells; assay type: functional
[26] = test system: A549; test: Potency index, ratio of foretinib IC50 to compound IC50 for antiproliferative activity against human A549 cells; assay type: functional
[27] = test system: Escherichia coli; test: Antimicrobial activity against Escherichia coli NCIM 5051 incubated for 36 hrs by agar well diffusion method; assay type: functional
[28] = test system: Staphylococcus aureus; test: Antimicrobial activity against Staphylococcus aureus NCIM 5022 incubated for 36 hrs by agar well diffusion method; assay type: functional
[29] = test system: Rattus norvegicus; test: Anti-inflammatory activity against carrageenan-induced paw oedema in Wistar rat assessed as reduction in paw edema at 20 mg/kg administered 30 mins prior to carrageenan challenge measured at 3 hrs post carrageenan challenge by plethysmometric method relative to control; assay type: functional; parameters: scale not given: the % may be the effect or the level left
[30] = Inhibition of soyabean 5-lipoxygenase using arachidonic acid as substrate incubated for 5 mins by spectrophotometric method; parameters: species or system Glycine max
[31] = biological target: Prostaglandin G/H synthase 2 (Homo sapiens, UniProt P35354); test: Inhibition of human COX2 using arachidonic acid as substrate pretreated for 5 mins followed by substrate addition and measured after 20 mins by colorimetric assay
[32] = Inhibition of Saccharomyces cerevisiae alpha-glucosidase using p-nitrophenyl-alpha-D-glucopyranoside as substrate preincubated for 10 mins followed by substrate addition and measured after 20 mins by spectrophotometric analysis
[33] = test system: MCF7; test: Cytotoxicity against human MCF7 cells incubated up to 48 hrs by MTT assay; assay type: functional, cell-based; details: MCF7, 48 h
[34] = test system: A549; test: Cytotoxicity against human A549 cells incubated for 24 hrs by MTT assay; assay type: functional, cell-based; details: A549, 24 h
[35] = test system: HeLa; test: Cytotoxicity against human HeLa cells incubated for 24 hrs by MTT assay; assay type: functional, cell-based
[36] = test system: A549; test: Induction of cell cycle arrest in human A549 cells assessed as accumulation at subG1 phase by flow cytometry relative to control; assay type: functional
[37] = test system: HeLa; test: Induction of cell cycle arrest in human HeLa cells assessed as accumulation at subG1 phase by flow cytometry relative to control; assay type: functional
[38] = biological target: Serine/threonine-protein kinase PLK1 (Homo sapiens, UniProt P53350); test: Inhibition of PLK1 PBD (unknown origin) using GPMQSpTPLNG-OH as fluorescent probe incubated for 30 mins by fluorescence polarization assay
Serine/threonine-protein kinase PLK1, sequence (P53350 whole entry): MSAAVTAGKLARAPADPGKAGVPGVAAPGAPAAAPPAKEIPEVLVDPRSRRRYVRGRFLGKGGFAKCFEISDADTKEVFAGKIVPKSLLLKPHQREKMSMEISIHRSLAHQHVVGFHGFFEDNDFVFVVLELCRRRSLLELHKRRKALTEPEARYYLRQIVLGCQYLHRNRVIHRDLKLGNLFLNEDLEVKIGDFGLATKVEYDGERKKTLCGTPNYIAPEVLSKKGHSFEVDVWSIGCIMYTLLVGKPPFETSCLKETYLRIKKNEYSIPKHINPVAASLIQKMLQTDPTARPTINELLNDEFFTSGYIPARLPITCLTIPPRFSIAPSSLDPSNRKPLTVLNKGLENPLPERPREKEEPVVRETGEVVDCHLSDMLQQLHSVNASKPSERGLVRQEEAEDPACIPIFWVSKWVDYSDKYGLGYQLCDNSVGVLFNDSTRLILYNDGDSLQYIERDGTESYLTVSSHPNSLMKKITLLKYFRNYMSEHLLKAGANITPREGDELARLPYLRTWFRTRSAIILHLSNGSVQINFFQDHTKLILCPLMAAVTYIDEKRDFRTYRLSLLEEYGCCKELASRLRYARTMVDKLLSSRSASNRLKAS

[39] = test system: Leishmania major; test: Antileishmanial activity against Leishmania major 5-ASKH promastigotes incubated for 72 hrs by hemocytometer based cell counting method; assay type: functional, organism-based
[40] = test system: Bacillus subtilis; test: Antibacterial activity against Bacillus subtilis MTCC 441 after 24 hrs by serial dilution method; assay type: functional; details: MTCC 441, 24 h
[41] = test system: U-937; test: Antiinflammatory activity in human U937 cells assessed as inhibition of LPS-induced TNF-alpha production at 10 uM incubated for 24 hrs by ELISA relative to control; assay type: functional; details: U-937, 24 h
[42] = test system: U-937; test: Antiinflammatory activity in human U937 cells assessed as inhibition of LPS-induced TNF-alpha production incubated for 24 hrs by ELISA; assay type: functional, cell-based; details: U-937, 24 h
[43] = biological target: Dihydroorotate dehydrogenase (quinone), mitochondrial (Homo sapiens, UniProt Q02127); test: Inhibition of human recombinant N-terminal His-tagged DHODH (31 to 395 residues) expressed in Escherichia coli using dihydroorotate substrate preincubated for 5 mins followed by substrate addition by DCIP assay
[44] = test system: Escherichia coli; test: Antimicrobial activity against Escherichia coli […]; assay type: functional
[45] = Antioxidant activity assessed as inhibition of DPPH radical generation; assay type: functional

COc1ccc(NC(=O)NCc2cn(Cc3ccc(Cl)cc3Cl)nn2)cc1
IC50 [1]: 22.8 µM

Cc1ccc2c(c1)C=CC1(CCc3c(nnn3-c3ccccc3)C1)O2 (centres undefined)
MIC [2]: 4.74 µM (≈ 1.56 µg/mL)

COc1cc(Cn2cc(C(=O)c3c(-c4ccccc4)nc4ccccn34)nn2)cc(OC)c1OC
IC50 [3]: 0.51 µM
IC50 [4]: 1.04 µM

O=C1CCC(N2C(=O)c3cccc(NC(=O)CCCCCCCn4cc(COc5c(O)cc(O)c6c(=O)cc(-c7ccccc7)oc56)nn4)c3C2=O)C(=O)N1 (centres undefined)
IC50 [5]: 17 µM

O=c1oc2ccccc2c2c1cnn2Cc1cn(-c2c(Cl)cc(Cl)cc2Cl)nn1
IC50 [6]: 18 µM
IC50 [7]: 21 µM
inhibition [8]: 72%

C=C[C@H]1CN2CC[C@H]1C[C@H]2[C@H](O)c1cc(-c2cn(-c3ccc(O)cc3)nn2)nc2ccc(OC)cc12
IC50 [9]: 1.21 µM
Ratio IC50 [10]: 8

O=C(Cn1cc(CSc2ccc(Cl)cc2)nn1)OCc1ccc(Cl)cc1
MIC [11]: 13.8 µM (≈ 5.63 µg/mL)
MIC [12]: 13.8 µM (≈ 5.63 µg/mL)
MIC [13]: 13.8 µM (≈ 5.63 µg/mL)
MIC [14]: 13.8 µM (≈ 5.63 µg/mL)

COc1ccc(-c2ccc(O[C@H](C)Cn3cc(-c4ccc(C(F)(F)F)cc4)nn3)c(OC)c2)cc1
IC50 [15]: 14.2 µM

C=C(C)[C@@H]1CC[C@]2(COC(=O)c3cn([C@H]4C[C@H](n5cc(C)c(=O)[nH]c5=O)O[C@@H]4CO)nn3)CC[C@]3(C)[C@H](CC[C@@H]4[C@@]5(C)CCC(=O)C(C)(C)[C@@H]5CC[C@]43C)[C@@H]12
Ratio IC50 [16]: 5
IC50 [17]: 0.17 µM

CCc1ccc(-n2cc(CCC(=O)Nc3c(-c4ccccc4)[nH]c4ccccc34)nn2)cc1
inhibition [18]: 60.8%

O=C(CCCCC1CCSS1)NCc1cn(CCCCOc2ccc(-c3cc4c(ccc5ccccc54)oc3=O)cc2)nn1 (centres undefined)
IC50 [19]: 7.3 µM
IC50 [20]: 68.6 µM

O=C(Nc1ccc(Oc2ncnc3ccsc23)c(F)c1)c1nnn(-c2ccc(Cl)cc2)c1C(F)(F)F
IC50 [21]: 0.5 µM
IC50 [22]: 0.9 µM
IC50 [23]: 0.016 µM
Ratio IC50 [24]: 3.7 - 5.4
Ratio IC50 [25]: 3.7 - 5.4
Ratio IC50 [26]: 3.7 - 5.4
IC50 [5]: 1.1 µM

Fc1cccc(Cl)c1Cn1nncc1CN1CCN(C(c2ccccc2)c2ccccc2)CC1
diameter of the inhibition zone (DIZ) [27]: 15.63 mm
diameter of the inhibition zone (DIZ) [28]: 16.33 mm

CCc1ccc(-n2cc(CNC(=O)C(=O)c3cc4ccccc4[nH]3)nn2)cc1
Activity [29]: 76.9%
IC50 [4]: 8.17 µM
IC50 [30]: 7.73 µM
IC50 [31]: 0.12 µM

O=c1c2ccccc2nc(SCc2cn(Cc3ccc(Br)cc3)nn2)n1CCc1ccccc1
Ki [32]: 117 µM

O=C1C(=O)N(CCn2cc(COCCOc3ccc(/C(=C(/CCCl)c4ccccc4)c4ccccc4)cc3)nn2)c2c(Br)cc(Br)cc21
IC50 [33]: 1.56 µM

COc1cc(-c2cc(COc3ccccc3-c3nc4ccccc4o3)on2)ccc1OCc1cn(CC(=O)NCc2ccco2)nn1
IC50 [34]: 2.59 µM
IC50 [35]: 1.77 µM
Activity [36]: 49.43%
Activity [37]: 42.58%

O=C(CCNC(=O)c1ccc(CO)cc1)N[C@@H](Cc1cnnn1CCCCCCCCc1ccccc1)C(=O)NCc1cnnn1CCP(=O)(O)O
IC50 [38]: 3.37 µM

COC(=O)[C@H](CC(C)C)NC(=O)c1cn(-c2ccccc2N)nn1
IC50 [39]: 11 µg/mL (≈ 33.2 µM)

COc1c(O)cc(O)c2c(=O)cc(-c3ccccc3)oc12 [WOGONIN]
IC50 [5]: 30 µM

O=C(Cn1cc(CSc2ccc(Br)cc2)nn1)OCc1ccc(Cl)cc1
MIC [40]: 15.3 µM (≈ 6.93 µg/mL)
MIC [11]: 15.3 µM (≈ 6.93 µg/mL)
MIC [12]: 15.3 µM (≈ 6.93 µg/mL)
MIC [13]: 15.3 µM (≈ 6.93 µg/mL)
MIC [14]: 15.3 µM (≈ 6.93 µg/mL)

O=c1oc2ccccc2c2nn(Cc3cn(-c4c(Cl)cc(Cl)cc4Cl)nn3)cc12
IC50 [6]: 29 µM
IC50 [7]: 24 µM
inhibition [8]: 58%

Clc1ccc(Cn2nncc2CN2CCN(C(c3ccccc3)c3ccccc3)CC2)c(Cl)c1
diameter of the inhibition zone (DIZ) [27]: 16.15 mm
diameter of the inhibition zone (DIZ) [28]: 16.45 mm

COc1ccc(-n2nnc3c2CCC2(C=Cc4cc(Cl)ccc4O2)C3)cc1 (centres undefined)
MIC [2]: 4.11 µM (≈ 1.56 µg/mL)

COc1ccc(-n2nnc3c2CCC2(C=Cc4cc(C)ccc4O2)C3)cc1 (centres undefined)
MIC [2]: 4.34 µM (≈ 1.56 µg/mL)

Cc1cc(O)cc2oc(=O)cc(CNCc3cn(-c4ccc(Br)cc4)nn3)c12
inhibition at 10 µM [41]: 62%
IC50 [42]: 8.01 µM

NC(=O)c1cc(F)c(F)cc1-n1cc(COc2ccc(C(F)(F)F)cc2)nn1
IC50 [43]: 2.1 µM

Cc1cc(O)c(C(=O)/C=C/c2ccc(OCc3cn(Cc4ccc(Br)cc4)nn3)cc2)c(=O)o1
MIC [44]: 3 µM (≈ 1.57 µg/mL)

Cn1c(=O)c2c3cc(F)ccc3c(=O)n(Cc3cn(Cc4ccccc4)nn3)c2n(C)c1=O
IC50 [45]: 6.02 µM

— ChEMBL document CHEMBL4385639, “1,2,3-Triazole-containing hybrids as leads in medicinal chemistry: A recent overview” (Bioorg Med Chem, 2019)
